Assay results as given in US20220339261A1, “ORAL PHARMACEUTICAL COMPOSITION INCLUDING TERIPARATIDE AND METHOD FOR PREPARING SAME” (ICURE BNP CO., LTD., priority 2019, published 2022).

Tests used:
[1] = Rat bioavailability / pharmacokinetics, plasma teriparatide by ELISA; settings: for AUCinf / AUClast: mean ± SD (n = 4)
Procedure: After anesthesia by intraperitoneal injection of ketamine (45 mg/kg) and xylazine (5 mg/kg) to female Sprague-Dawley rats (200-250 g, 6-7 weeks old), the abdomen of the rat was cut to take out the small intestine, and Examples 1 and 4 and Comparative Examples 1 and 2 prepared above were dispersed in purified water, and then injected into a proximal jejunum in an amount corresponding to 100 μg/kg as teriparatide by 400 μL. In addition, in order to evaluate the relative bioavailability, 150 μL of teriparatide solution dissolved in physiological saline was subcutaneously injected at an amount corresponding to 20 μg/kg as teriparatide.
After drug administration, blood samples were collected 150 μL at regular time intervals and mixed with 3.8% aqueous sodium citrate solution of 50 μL. Thereafter, the blood sample was centrifuged for 15 minutes at 2,500×g, at 4° C., and plasma was collected and stored at −70° C. The teriparatide concentration in plasma was measured at a wavelength of 620 nm using the human PTH (1-34) ELISA kit (ALPCO Diagnostics, USA). The pharmacokinetic parameters are estimated through the non-compartment method using WinNonlin S Software (ver. 5.3; Pharsight Corporation, USA) and are shown in Table 6 and FIG. 1.

[2] = Parallel artificial membrane permeability assay (PAMPA), effective permeability of teriparatide; type: in vitro ADME; settings: PBS pH 6.8, 200 μg/mL as teriparatide, room temperature, 5 hours, mean ± SD (n = 4)
Procedure: Effective permeability (Pe) through the artificial intestinal membrane of Examples 1 and Comparative Examples 1 to 7 prepared above was evaluated using the parallel artificial membrane permeability assay (PAMPA), which is an artificial intestinal membrane permeability evaluation system. First, the samples of Example 1 and Comparative Examples 1 to 7 were dissolved in phosphate buffer (PBS, pH 6.8) to a concentration of 200 μg/mL as teriparatide, and then 200 μL each was added to the donor part of the PAMPA system, and 300 μL of phosphate buffer (PBS, pH 6.8) was filled in the receiving part of the PAMPA system. […] Then, the solution of each well of the receiving part and the donor part was filtered through a membrane filter having a pore diameter of 0.45 μm, and then the concentration of teriparatide permeated through the artificial intestinal membrane was analyzed using the HPLC system under the following conditions.
50 μL of each sample was injected into the HPLC system, and acetonitrile (B) containing 0.1% (w/v) trifluoroacetic acid (TFA) aqueous solution (A) and 0.1% (w/v) TFA as mobile phases were separated by linearly changing the composition of mobile phase B from 51% to 76% for 25 minutes at a flow rate of 1.0 mL/min. Teriparatide was measured at 220 nm, and the effective transmittance (Pe) through the artificial intestinal membrane was calculated by Formula 1 below. […]

[3] = Apparent permeability through Caco-2 cell monolayer (Transwell); type: in vitro ADME; settings: Caco-2 monolayer, 200 μM as teriparatide in HBSS, 37° C., up to 5 hours; mean ± SD (n = 4); read-out: Apparent transmittance (Papp)
Procedure: The apparent permeability of the complexes prepared as in Example 1 and Comparative Examples 1 to 7 to the intestinal cell membrane, Caco-2 cell membrane, was evaluated as follows. After Caco-2 cells were treated at a concentration of 1×10^5 cells/mL in 24-well Transwell, respectively, and after culturing the cells for 14 to 16 days, a cell monolayer of the electrical resistance (TEER) value through the Caco-2 cell membrane was >350 Ω·cm^2 was used for the experiment. First, the medium was removed from the Transwell, and then the donor part and receiving part were filled with HBSS and cultured at 37° C. for 20 minutes, then the TEER value was measured again, and then HBSS was removed. […] At 0.5, 1, 2, 3, 4, and 5 hours, 100 μL samples were collected from the receiving part, filtered using a membrane filter (pore 0.45 μm, PVDF), and the concentration of teriparatide permeated through the intestinal cell membrane was analyzed by HPLC under the conditions mentioned in Experimental Example 1. Apparent intestinal cell membrane permeability (Papp) was calculated using Formula 2 below, and the results are shown in Table 3. […]

[4] = female, Sprague-Dawley, plasma, sc, 0.02 mg/kg
[5] = subcutaneous injection, 0.02 mg/kg as teriparatide
[6] = dosing in jejunum, 0.1 mg/kg as teriparatide

SMILES: CC[C@H](C)[C@H](NC(=O)[C@H](CCC(=O)O)NC(=O)[C@H](CO)NC(=O)[C@@H](NC(=O)[C@@H](N)CO)C(C)C)C(=O)N[C@@H](CCC(N)=O)C(=O)N[C@@H](CC(C)C)C(=O)N[C@@H](CCSC)C(=O)N[C@@H](Cc1cnc[nH]1)C(=O)N[C@@H](CC(N)=O)C(=O)N[C@@H](CC(C)C)C(=O)NCC(=O)N[C@@H](CCCCN)C(=O)N[C@@H](Cc1cnc[nH]1)C(=O)N[C@@H](CC(C)C)C(=O)N[C@@H](CC(N)=O)C(=O)N[C@@H](CO)C(=O)N[C@@H](CCSC)C(=O)N[C@@H](CCC(=O)O)C(=O)N[C@@H](CCCN=C(N)N)C(=O)N[C@H](C(=O)N[C@@H](CCC(=O)O)C(=O)N[C@@H](Cc1c[nH]c2ccccc12)C(=O)N[C@@H](CC(C)C)C(=O)N[C@@H](CCCN=C(N)N)C(=O)N[C@@H](CCCCN)C(=O)N[C@@H](CCCCN)C(=O)N[C@@H](CC(C)C)C(=O)N[C@@H](CCC(N)=O)C(=O)N[C@@H](CC(=O)O)C(=O)N[C@H](C(=O)N[C@@H](Cc1cnc[nH]1)C(=O)N[C@@H](CC(N)=O)C(=O)N[C@@H](Cc1ccccc1)C(=O)O)C(C)C)C(C)C [Teriparatide]
- Cmax [1, 4]: 0.805 ± 0.209 ng/mL
- Tmax [1, 4]: 15 min
- bioavailability [1, 4]: 100%
- AUCinf [1, 5]: 0.765 ± 0.199 ng ·) sh/mL
- AUClast [1, 5]: 0.734 ± 0.191 ng ·) sh/mL

SMILES: CC[C@H](C)[C@H](NC(=O)[C@H](CCC(=O)O)NC(=O)[C@H](CO)NC(=O)[C@@H](NC(=O)[C@@H](N)CO)C(C)C)C(=O)N[C@@H](CCC(N)=O)C(=O)N[C@@H](CC(C)C)C(=O)N[C@@H](CCSC)C(=O)N[C@@H](Cc1cnc[nH]1)C(=O)N[C@@H](CC(N)=O)C(=O)N[C@@H](CC(C)C)C(=O)NCC(=O)N[C@@H](CCCCN)C(=O)N[C@@H](Cc1cnc[nH]1)C(=O)N[C@@H](CC(C)C)C(=O)N[C@@H](CC(N)=O)C(=O)N[C@@H](CO)C(=O)N[C@@H](CCSC)C(=O)N[C@@H](CCC(=O)O)C(=O)N[C@@H](CCCN=C(N)N)C(=O)N[C@H](C(=O)N[C@@H](CCC(=O)O)C(=O)N[C@@H](Cc1c[nH]c2ccccc12)C(=O)N[C@@H](CC(C)C)C(=O)N[C@@H](CCCN=C(N)N)C(=O)N[C@@H](CCCCN)C(=O)N[C@@H](CCCCN)C(=O)N[C@@H](CC(C)C)C(=O)N[C@@H](CCC(N)=O)C(=O)N[C@@H](CC(=O)O)C(=O)N[C@H](C(=O)N[C@@H](Cc1cnc[nH]1)C(=O)N[C@@H](CC(N)=O)C(=O)N[C@@H](Cc1ccccc1)C(=O)O)C(C)C)C(C)C [compound 1]
- Effective transmittance (Pe) [2]: 0.582 ± 0.132 ×10^−6 cm/s
- Papp [3]: 0.362 ± 0.045 ×10⁻⁶ cm/s
- bioavailability ([1]; 0.1 mg/kg): 0.81 ± 0.191%
- AUCinf [1, 6]: 0.031 ± 0.007 ng ·) sh/mL
- AUClast [1, 6]: 0.030 ± 0.007 ng ·) sh/mL
- AUC(0-t) ([1]; in vivo, 0.1 mg/kg): 0.03 ± 0.007 ng·h/mL
- Cmax ([1]; in vivo, 0.1 mg/kg): 0.041 ± 0.01 ng/mL
- Tmax ([1]; in vivo, 0.1 mg/kg): 19.8 ± 8.4 min
